Test system: hypertensive patients
Assay: Pharmacogenomic study: change of office systolic blood pressure (DSBP5_0) after 5 weeks of rostafuroxin vs placebo, by genotype
Type: in vivo, human
Procedure: A pharmacogenomic study was performed to ascertain the effect of genetic variations on an individual response to rostafuroxin. The sample for the pharmacogenomic study consisted of 342 individuals that were genotyped with the Human1M array from Illumina using Human1M Duo CHIP genotyping Bead Chip according to procedure described in [Ref. 10, 11, 12]. Among the individuals, 169 were administered the placebo treatment and 173 the active drug (rostafuroxin) in the first period (5 weeks) with demographics as in [Ref 13]. In particular, patients were randomized to one of the following oral doses of rostafuroxin: 0.05, 0.15, 0.5, 1.5, or 5 mg/day for 5 weeks. Each dose had to be compared to a placebo in a crossover design.
For the above sample of individuals a genetic association analysis, was performed to associate the phenotype of the tested individuals with the SNPs detected in the individuals. The selected phenotype of interest was the blood pressure response. The SNPs selected for detection were the 1111170 SNPs on autosomal chromosomes of the individual.
The genetic analysis was performed according to a quantitative genetic association design where the phenotype of interest is a quantitative variable (QT), and the variables (factors) affecting the distribution of the phenotype of interest are SNPs, therapy (placebo, rostafuroxin) and the SNP*therapy interaction.
In particular, the quantitative phenotype selected for the statistical analyses was the difference in mmHg between the office Systolic Blood Pressure (SBP) at the end of first treatment period (SBP_5) and the office Systolic Blood Pressure at baseline after one month of run-in (SBP_0) and is herein also identified as DSBP5_0. The selected QT phenotype and other factors affecting distribution of the phenotype of interest were then analyzed according to the following quantitative trait interaction test Phenotype=SNP+therapy+SNP*therapy as illustrated in further details below.
In particular, in Table 2 the descriptive statistics of DSBP5_0 for the entire sample and for the patients treated with placebo and rostafuroxin are listed. The rather modest basal level of SBP can be explained in view of the recruitment of patients with “mild” hypertension (SBP range 140-179 mmHg), required by the inclusion of a placebo arm.
Those SNPs were further selected to identify the genotypes with the largest response to rostafuroxin compared to placebo by performing a Statistical ANOVA analysis using STATA software in placebo and rostafuroxin with DSBP5_0 as dependent variable and the candidate significant SNPs as independent variables. In particular, to select the genotypes of the interactions between two SNPs with the largest response to rostafuroxin compared to placebo, the Applicants performed an ANOVA statistics in placebo and rostafuroxin with DSBP5_0 as dependent variable and the interaction s between SNPs as independent variables. The Applicants report an example of this procedure in FIG. 5: interaction between rs8899 and rs4678. The Applicants selected the interaction between the genotype AA of rs8899 and the genotype BB of rs4678 because it presents the greatest remarkable decrement in the therapy group and not in the placebo group.
In particular, to select the genotypes with the largest response to rostafuroxin compared to placebo, the Applicants performed an ANOVA statistics (oneway) in placebo and rostafuroxin with DSBP5_0 as dependent variable and the significant SNPs as independent variables.

[1] = GWS SNP ga001619 (PIGR) genotype 1
[2] = GWS SNP rs188334 (FAIM3) genotype 1
[3] = GWS SNP rs721207 (LOC131691) genotype 3
[4] = GWS SNP rs748140 (PIGR) genotype 1
[5] = GWS SNP rs1110446 (TRIM31) genotype 1
[6] = GWS SNP rs1110446 (TRIM31) genotype 2
[7] = GWS SNP rs1362126 (HLA-F) genotype 3
[8] = GWS SNP rs1901139 (LOC644192) genotype 3
[9] = GWS SNP rs1998394 (LOC728316) genotype 3
[10] = GWS SNP rs2275531 (PIGR) genotype 3
[11] = GWS SNP rs2345088 (KCNS3) genotype 1
[12] = GWS SNP rs2345088 (KCNS3) genotype 2
[13] = GWS SNP rs2427832 (LOC649458) genotype 2
[14] = GWS SNP rs2461911 (LOC389970) genotype 1
[15] = GWS SNP rs2517718 (HLA-A) genotype 1
[16] = GWS SNP rs2555500 (LOC389174) genotype 1
[17] = GWS SNP rs2743951 (RP3-377H14.5) genotype 3
[18] = GWS SNP rs3087816 (SLC30A7) genotype 2
[19] = GWS SNP rs3893464 (HCG9) genotype 1
[20] = GWS SNP rs4710592 (RCADH5) genotype 3
[21] = GWS SNP rs4998662 (FAM46A) genotype 2
[22] = GWS SNP rs5013093 (HLA-G) genotype 1
[23] = GWS SNP rs6457110 (HCG9) genotype 1
[24] = GWS SNP rs6718282 (KCNS3) genotype 2
[25] = GWS SNP rs7216331 (COX10) genotype 2
[26] = GWS SNP rs7521668 (DPH5) genotype 1
[27] = GWS SNP rs7521668 (DPH5) genotype 2
[28] = GWS SNP rs8179654 (LOC642727) genotype 3

With C[C@]12CC[C@H](O)C[C@H]1CC[C@@H]1[C@@H]2CC[C@]2(C)[C@@](O)(c3ccoc3)CC[C@]12O [rostafuroxin, 17β-(3-furyl)-5β-androstane-3β,14β,17α-triol] the “higher response in blood pressure drop, low doses vs high doses” value (0.05 to 0.50 mg/day vs 1.5 to 5 mg/day) was “+50%”, the “DELTA delta Therapy placebo” value [1] was 9.252 mmHg and the DSBP5_0 therapy [1] was −13.615 mmHg. The “DELTA delta Therapy placebo” value [2] was 8.146 mmHg, the DSBP5_0 therapy [2] was −11.82 mmHg and the “DELTA delta Therapy placebo” value [3] was 6.934 mmHg. For the same compound, the DSBP5_0 therapy [3] was −11.58 mmHg, the “DELTA delta Therapy placebo” value [4] was 6.506 mmHg and the DSBP5_0 therapy [4] was −11.28 mmHg. The “DELTA delta Therapy placebo” value [5] was 20.59 mmHg, the DSBP5_0 therapy [5] was −16.37 mmHg and the “DELTA delta Therapy placebo” value [6] was 3.54 mmHg. For the same compound, the DSBP5_0 therapy [6] was −10.13 mmHg, the “DELTA delta Therapy placebo” value [7] was 4.93 mmHg and the DSBP5_0 therapy [7] was −10.29 mmHg. For the same compound, the “DELTA delta Therapy placebo” value [8] was 10.52 mmHg, the DSBP5_0 therapy [8] was −12.11 mmHg and the “DELTA delta Therapy placebo” value [9] was 5.788 mmHg. The DSBP5_0 therapy [9] was −10.51 mmHg, the “DELTA delta Therapy placebo” value [10] was 7.817 mmHg and the DSBP5_0 therapy [10] was −12.18 mmHg. For the same compound, the DSBP5_0 therapy (GWS SNP rs2326912 (TMEM200A) genotype 1) was −11.7 mmHg, the “DELTA delta Therapy placebo” value [11] was 33.93 mmHg and the DSBP5_0 therapy [11] was −30.5 mmHg. The “DELTA delta Therapy placebo” value [12] was 3.512 mmHg, the DSBP5_0 therapy [12] was −10.69 mmHg and the “DELTA delta Therapy placebo” value [13] was 6.845 mmHg. For the same compound, the DSBP5_0 therapy [13] was −10.38 mmHg, the “DELTA delta Therapy placebo” value [14] was 22.82 mmHg and the DSBP5_0 therapy [14] was −20.6 mmHg. The “DELTA delta Therapy placebo” value [15] was 6.212 mmHg, the DSBP5_0 therapy [15] was −11.83 mmHg and the “DELTA delta Therapy placebo” value [16] was 5.2 mmHg. The DSBP5_0 therapy [16] was −10.52 mmHg, the “DELTA delta Therapy placebo” value [17] was 5.62 mmHg and the DSBP5_0 therapy [17] was −11.17 mmHg. For the same compound, the “DELTA delta Therapy placebo” value [18] was 7.021 mmHg, the DSBP5_0 therapy [18] was −13.044 mmHg and the “DELTA delta Therapy placebo” value [19] was 9.016 mmHg. For the same compound, the DSBP5_0 therapy [19] was −10.99 mmHg, the “DELTA delta Therapy placebo” value [20] was 20.075 mmHg and the DSBP5_0 therapy [20] was −23.825 mmHg. The “DELTA delta Therapy placebo” value [21] was 13.54 mmHg, the DSBP5_0 therapy [21] was −15.81 mmHg and the “DELTA delta Therapy placebo” value [22] was 22.09 mmHg. For the same compound, the DSBP5_0 therapy [22] was −20.49 mmHg, the “DELTA delta Therapy placebo” value [23] was 5.862 mmHg and the DSBP5_0 therapy [23] was −10.35 mmHg. The DSBP5_0 therapy (GWS SNP rs6718282 (KCNS3) genotype 1) was −41.3 mmHg, the “DELTA delta Therapy placebo” value [24] was 13.825 mmHg and the DSBP5_0 therapy [24] was −12.625 mmHg. The “DELTA delta Therapy placebo” value [25] was 13.91 mmHg, the DSBP5_0 therapy [25] was −15.81 mmHg and the “DELTA delta Therapy placebo” value [26] was 28.95 mmHg. The DSBP5_0 therapy [26] was −25 mmHg, the “DELTA delta Therapy placebo” value [27] was 7.021 mmHg and the DSBP5_0 therapy [27] was −13.044 mmHg. For the same compound, the “DELTA delta Therapy placebo” value [28] was 8.442 mmHg, the DSBP5_0 therapy [28] was −10.95 mmHg and the “DELTA delta Therapy placebo” value (GWS SNP rs9361863 (LOC728360) genotype 1) was 19.6 mmHg.
